Values of other authors in patent US20260275282A1, “CELLS BEING HIGHLY ENRICHED IN SASP FACTORS, AND COMPOSITION COMPRISING SAID CELLS” (EVOMEDIS GMBH, priority 2022, published 2026).
pIC50: −log10 of the molar value. Like-named read-outs stand apart in the source and are kept apart here. Peptide text beside a SMILES is read from it.

How the values were obtained:
[1] = test system: protein secretion (SASP factor secretion)
kinesin = conditions: Kinesin inhibitors: Group V; read-out: Concentration (IC50)
microtubules assembly = conditions: half of the maximal concentration necessary to inhibit the microtubules assembly
PI3K-mTOR = conditions: Dual inhibitor of PI3K-mTOR; read-out: Concentration (IC50)
autophagy = conditions: BH3 domain mimetics; read-out: Concentration (IC50)
proteasome = conditions: Inhibitor of proteasome; read-out: Concentration (IC50)
[2] = concentration range that results in significant reduction, preferably inhibition, of SASP factor secretion

## Fc1ccc([C@@H]2CCNC[C@H]2COc2ccc3c(c2)OCO3)cc1 [Paroxetine]
[1]; [2]
  Concentration: 10 to 20 µM

## Cc1ccc(C(=O)N(CCCN)[C@@H](c2nc3cc(Cl)ccc3c(=O)n2Cc2ccccc2)C(C)C)cc1 [Ispinesib (SB715992), Ispinesib]
kinesin
  pIC50: 4.52 to 5.00

## CC[C@]12C=CCN3CC[C@@]4(c5cc([C@@]6(C(=O)OC)C[C@@H]7C[C@@H](C(C)(F)F)CN(Cc8c6[nH]c6ccccc86)C7)c(OC)cc5N(C)[C@H]4[C@@](O)(C(=O)OC)[C@@H]1OC(C)=O)[C@@H]32 [Vinflunine]
Microtubules assembly
  pIC50: 9.10

## Oc1cccc(-c2nc(N3CCOCC3)c3oc4ncccc4c3n2)c1 [PI-103]
PI3K-mTOR
  pIC50: 6.82 to 8.10

## NC(=O)N1CCC(CC(=O)N2CCC([C@H]3c4ncc(Br)cc4CCc4cc(Cl)cc(Br)c43)CC2)CC1 [Lonafarnib]
[1]; [2]
  Concentration: 5 µM

## O=C(CCCN1CCC2(CC1)C(=O)NCN2c1ccccc1)c1ccc(F)cc1 [Spiperone]
[1]; [2]
  Concentration: 10 to 20 µM

## C1CCC(C(CC2CCCCN2)C2CCCCC2)CC1 (centres unmarked) [Perhexiline]
[1]; [2]
  Concentration: 10 µM

## C/C1=C/C[C@@H](/C(C)=C/c2csc(C)n2)OC(=O)C[C@H](O)C(C)(C)C(=O)[C@H](C)[C@@H](O)[C@@H](C)CCC1 [Desoxyepothilone B]
Microtubules assembly
  pIC50: 7.89

## CC(Oc1ccc(O)cc1)(P(=O)(O)O)P(=O)(O)O [L-690,330]
[1]; [2]
  Concentration: 100 µM

## CN(C)CC[C@H](CSc1ccccc1)Nc1ccc(S(=O)(=O)NC(=O)c2ccc(N3CCN(Cc4ccccc4-c4ccc(Cl)cc4)CC3)cc2)cc1[N+](=O)[O-] [ABT-737]
autophagy
  pIC50: 5.00 to 5.30

## CNCCC(Oc1ccc(C(F)(F)F)cc1)c1ccccc1 (centres unmarked) [Fluoxetine]
[1]; [2]
  Concentration: 30 to 100 µM

## CCCC[C@@H](C=O)NC(=O)[C@H](CC(C)C)NC(=O)OCc1ccccc1 [Calpeptin]
[1]; 1 mM extracellular Ca2 - calcium dependent
  Concentration: 80 μM (1 mM

## Cn1cnc(N)c2ncnc1-2 [3-Methyladenine]
[1]; [2]
  Concentration: 5000 µM

## CC[C@]1(O)C[C@@H]2CN(CCc3c([nH]c4ccccc34)[C@@](C(=O)OC)(c3cc4c(cc3OC)N(C)[C@H]3[C@@](O)(C(N)=O)[C@H](O)[C@]5(CC)C=CCN6CC[C@]43[C@@H]65)C2)C1 [Vindesine]
Microtubules assembly
  pIC50: 9.10

## O=CC[C@@H](O)[C@H](O)[C@H](O)CO [2-Deoxyglucose]
[1]; [2]
  Concentration: 50000 µM

## Methyl-β-cyclodextrin
[1]; + 2-5 nM Vinblastine, actin depolymerizer with microtubule targeting-agent
  Concentration in combination with Vinblastine: 1 mM + 2-5 nM

## CNC(=O)c1cc(Oc2ccc(NC(=O)Nc3ccc(Cl)c(C(F)(F)F)c3)cc2)ccn1 [Sorafenib]
[1]; [2]
  Concentration: 5 to 10 µM

## COc1ccc(CCN2CCC(Nc3nc4ccccc4n3Cc3ccc(F)cc3)CC2)cc1 [Astemizole]
[1]; [2]
  Concentration: 20 to 40 µM

## CCCCc1ccc2[nH]c(NC(=O)OC)nc2c1 [Parbendazole]
[1]; [2]
  Concentration: 10 µM

## CN(C)CCCN1c2ccccc2CCc2ccccc21 [Imipramine]
[1]; [2]
  Concentration: 1 µM

## CN[C@H]1CC[C@@H](c2ccc(Cl)c(Cl)c2)c2ccccc21 [Sertraline]
[1]; [2]
  Concentration: 10 µM

## CC[C@]1(O)C[C@@H]2CN(CCc3c([nH]c4ccccc34)[C@@](C(=O)OC)(c3cc4c(cc3OC)N(C)[C@H]3[C@@](O)(C(=O)OC)[C@H](OC(C)=O)[C@]5(CC)C=CCN6CC[C@]43[C@@H]65)C2)C1 [Vinblastine]
Microtubules assembly
  pIC50: 9.10

## CCC1=C[C@@H]2CN(C1)Cc1c([nH]c3ccccc13)[C@@](C(=O)OC)(c1cc3c(cc1OC)N(C)[C@H]1[C@@](O)(C(=O)OC)[C@H](OC(C)=O)[C@]4(CC)C=CCN5CC[C@]31[C@@H]54)C2 [Vinorelbine]
Microtubules assembly
  pIC50: 9.10

## Oc1ccc(C=Cc2cc(O)cc(O)c2)cc1 [Resveratrol]
[1]; [2]
  Concentration: 12.5 to 50 µM

## COc1cc2c(c(OC)c1OC)-c1ccc(OC)c(=O)cc1[C@@H](NC(C)=O)CC2 [Colchicine]
[1]; [2]
  Concentration: 2 to 5 µM

## Cyclclosporine A
[1]; [2]
  Concentration: 10 to 40 µM

## COC(=O)Nc1nc2ccc(C(=O)c3cccs3)cc2[nH]1 [Nocodazole]
Microtubules assembly
  pIC50: 9.10

## CC[C@@]1([C@@H]2O[C@@H]([C@H]3O[C@@](O)(CO)[C@H](C)C[C@@H]3C)C[C@@H]2C)CC[C@H]([C@]2(C)CC[C@]3(C[C@H](O)[C@@H](C)[C@@H]([C@@H](C)[C@@H](OC)[C@H](C)C(=O)O)O3)O2)O1 [Monensin]
[1]; [2]
  Concentration: 10 µM

## CC(NCCC(c1ccccc1)c1ccccc1)c1ccccc1 (centres unmarked) [Fendiline]
[1]; [2]
  Concentration: 1 to 100 µM

## C[C@@H]1CN2CCC[C@H]3CCCCCC[C@H]4CCN5CCC[C@@](O)(CCCCCC[C@@H]1O[C@H]32)[C@H]5O4 [Xestospongin B]
[1]; [2]
  Concentration: 0.08 to 10 µM

## C[C@@H](N)[C@H]1CC[C@H](C(=O)Nc2ccncc2)CC1 [Y27632]
[1]; [2]
  Concentration: 5 µM

## CC[C@]1(O)C[C@H]2CN(CCc3c([nH]c4ccccc34)[C@@](C(=O)OC)(c3cc4c(cc3OC)N(C=O)[C@H]3[C@@](O)(C(=O)OC)[C@H](OC(C)=O)[C@]5(CC)C=CCN6CC[C@]43[C@@H]65)C2)C1 [Vincristine]
Microtubules assembly
  pIC50: 9.10

## CC(=O)N[C@@H](CC(C)C)C(=O)N[C@@H](CC(C)C)C(=O)N[C@H](C=O)CCCNC(=N)N [Leupeptin]
[1]; [2]
  Concentration: 0.08 to 0.096 µM

## CC(=O)O[C@H]1C(=O)[C@@]2(C)[C@H]([C@H](OC(=O)c3ccccc3)[C@]3(O)C[C@H](OC(=O)[C@H](O)[C@@H](NC(=O)c4ccccc4)c4ccccc4)C(C)=C1C3(C)C)[C@]1(OC(C)=O)CO[C@@H]1C[C@@H]2O [Paclitaxel (Taxol), Paclitaxel]
Microtubules assembly
  pIC50: 8.10

## CCCC[C@@H](C)/C=C(C)/C=C(\C)C(=O)NC1=C[C@@](O)(/C=C/C=C/C=C/C(=O)NC2=C(O)CCC2=O)[C@@H]2O[C@@H]2C1=O [Manumycin A]
[1]; [2]
  Concentration: 1 µM

## CSCC[C@@H](C=O)NC(=O)[C@H](CC(C)C)NC(=O)[C@H](CC(C)C)NC(C)=O [Calpain inhibitor II, N-acetyl-leucyl-leucyl-methioninal] (Ac-Leu-Leu-Met-aldehyde)
[1]; [2]
  Concentration: 10 µM

## CN(C)C(=N)N=C(N)N [Metformin]
[1]; [2]
  Concentration: 5 µM
